Earlier results as cited in patent publication US9592230B2, “Substituted imidazoles as PDE10A inhibitors” (priority 2008, dated 2017).

Assays:
[1] = system: cataleptic effect of the D2 receptor antagonist haloperidol; conditions: rats
[2] = system: amphetamine induced hyperactivity; conditions: rats
[3] = system: hyperactivity in rats induced by PCP

For `COc1ccc(Cc2nccc3cc(OC)c(OC)cc23)cc1OC` [Papaverine, papaverine], the “catalepsy on its own” value ([1]; alone) is listed as “did not cause catalepsy on its own”, the “effect on the cataleptic effect of haloperidol” value ([1]; together with haloperidol) is listed as “potentiated the cataleptic effect” and the “reduction of amphetamine induced hyperactivity” value [2] is listed as “insignificant”. The “hyperactivity induced by PCP” value [3] was “reduced hyperactivity”.
